Assays:
Format in all cases: in vivo, (NZB×NZW)F1 mice
[1] = tested on: submandibular salivary gland; test: Salivary gland histology in spontaneous murine model of lupus
Description: It is recognized within the art that Sjogren's Syndrome is a chronic disease state that affects the moisture-producing glands of the body, including the salivary glands of the mouth. As such, it was theorized that penetration of the selective Bcl-2 inhibitors into the salivary glands of patients with Sjogren's Syndrome could provide an effective treatment to decrease lymphocytes associated with Sjogren's Syndrome, without the dose-limiting thrombocytopenia associated with non-selective Bcl-2 inhibition. A histologic assessment of the penetration of selective Bcl-2 inhibitors into the salivary glands of spontaneous murine model for lupus was performed to test this theory. The spontaneous murine model of lupus, as described in Example 3, was used for the histological assessment described herein. Specifically, sublingual and submandibular salivary glands were fixed in 10% neutral-buffered formalin and paraffin embedded. Five μm sections were H&E stained and semiquantitatively scored (0-4) by an experienced pathologist for inflammatory cell infiltrates. Salivary gland infiltrate scoring categories: (1) 3 or fewer small periductular foci, (2) 3 or more medium sized foci, (3) several extensive foci, and (4) coalescing to diffuse infiltrates. The histologic assessment of the submandibular tissue sections is illustrated in FIG. 11.

IgG anti-ds DNA [2] = test: Anti-ds DNA titer by ELISA in IFNα-accelerated lupus model; conditions: interferon-induced model, 3-30 mg/kg
Description: (§1) An additional experiment was performed to determine the effects of treatment with a selective Bcl-2 inhibitor on anti-DS DNA titer in the Interferon-α accelerated lupus model. Anti-dsDNA antibody levels were measured by ELISA and assigned arbitrary activity unit concentrations per ml relative to a standard plasma pool derived from proteinuric 9-10 month old NZB/W mice. ELISA assay was performed by coating plates with poly-L-lysine followed by calf-thymus DNA. Diluted mouse plasma was incubated and developed using anti-IgG HRP conjugated antibodies and the mean OD from duplicate wells was compared to a titrated standard curve of pooled high tittered anti-dsDNA plasma. The undiluted standard plasma pool was arbitrarily assigned a value of 1000 anti-dsDNA Units/ml. A linear regression analysis was then used to calculate the relative units of a given sample multiplied by the given dilution factor. The results of this experiment are illustrated in FIG. 10.

IgG anti-ds DNA [3] = test: Anti-ds DNA titer by ELISA in spontaneous lupus model
Description: as §1, with “It is believed that Compound 1 triggers apoptosis” for “An additional experiment was performed to determine the effects”, “lymphocytes that are responsible for production of antibodies, which play” for “treatment with”, “role” for “selective Bcl-2 inhibitor on anti-DS DNA titer”, “progression of systemic” for “Interferon-α accelerated”, “erythematosus, as well as Sjogren's Syndrome. […] Specifically, anti-dsDNA” for “model. Anti-dsDNA”, “factor.” for “factor. The results of this experiment are illustrated in FIG. 10.”

CC1(C)CCC(CN2CCN(c3ccc(C(=O)NS(=O)(=O)c4ccc(NCC5CCOCC5)c([N+](=O)[O-])c4)c(Oc4cnc5[nH]ccc5c4)c3)CC2)=C(c2ccc(Cl)cc2)C1 [Compound 1, 4-(4-{[2-(4-chlorophenyl)-4,4-dimethylcyclohex-1-en-1-yl]methyl}piperazin-1-yl)-N-({3-nitro-4-[(tetrahydro-2H-pyran-4-ylmethyl)amino]phenyl}sulfonyl)-2-(1H-pyrrolo[2,3-b]pyridin-5-yloxy)benzamide]
submandibular salivary gland histology scores vs untreated ([1]; 30 mg/kg and 100 mg/kg): statistically significant improvement
salivary gland histology score ([1]; 30 mg/kg and 100 mg/kg, scale 0-4, untreated mice 3-4): 1-2
salivary gland infiltrates ([1]; 30 or 100 mg/kg): small, discrete and less frequent
anti-ds DNA titer (IgG anti-ds DNA [2]): did not significantly inhibit
anti-ds DNA titer (IgG anti-ds DNA [3]; spontaneous model, 1, 3 and 10 mg/kg): no appreciable reduction
anti-ds DNA titer vs vehicle control (IgG anti-ds DNA [3]; spontaneous model, week 40, 30 and 100 mg/kg): significantly inhibited the increase in anti-ds DNA titer

Reference: patent publication US9872861B2, “Methods of treatment using selective Bcl-2 inhibitors” (AbbVie Inc., priority 2010, dated 2018)
